In patent US20240148821A1, “PHARMACEUTICAL USE OF CYCLIC PEPTIDE COMPOUND” (CHUGAI SEIYAKU KABUSHIKI KAISHA, priority 2021, published 2024):
Bridge positions count the residues as written; N and C are the ends. Square brackets hold non-standard residues; d marks the D form. Peptide text beside a SMILES is read from it. * marks the point of attachment. hPhe(3-Cl-4-CF3) = N[C@@H](CCc1ccc(C(F)(F)F)c(Cl)c1)C(=O)O; NMePhe(4-Cl) = CN[C@@H](Cc1ccc(Cl)cc1)C(=O)O; NMePhe(4-Me) = CN[C@@H](Cc1ccc(C)cc1)C(=O)O; Phe(2-OMe) = COc1ccccc1C[C@H](N)C(=O)O; Phe(3-I) = N[C@@H](Cc1cccc(I)c1)C(=O)O; NMe3Pal = CN[C@@H](Cc1cccnc1)C(=O)O; NMeCha = CN[C@@H](CC1CCCCC1)C(=O)O; NMeChg = CN[C@H](C(=O)O)C1CCCCC1; NMeT = CN[C@H](C(=O)O)[C@@H](C)O; hPhe = N[C@@H](CCc1ccccc1)C(=O)O; N(CH2CH2)2CF2 = FC1(F)CCN(*)CC1; NMeD = CN[C@@H](CC(=O)O)C(=O)O; NMeL = CN[C@@H](CC(C)C)C(=O)O; Cba = N[C@@H](CC1CCC1)C(=O)O; NMeV = CN[C@H](C(=O)O)C(C)C; NMeA = CN[C@@H](C)C(=O)O; NMeAib = CNC(C)(C)C(=O)O; Piperidide = C1CCN(*)CC1; Ac5c = NC1(C(=O)O)CCCC1; Aze = O=C(O)[C@@H]1CCN1; Abu = CC[C@H](N)C(=O)O; Ac3c = NC1(C(=O)O)CC1; Aib = CC(C)(N)C(=O)O; Sar = CNCC(=O)O

The molecules below were run on Human pancreatic cancer cell line AsPC-1 (G12D mutation Kras) (assay: AsPC-1 cell growth inhibition (AsPC-1 CGI)). Conditions: read-out: AsPC-1 cell growth inhibition, 50% growth inhibitory concentration (IC50 value); 96 hours, CellTiter-Glo, values classified in ranges.
Assay type: cell-based
Procedure: Test compounds were serially dilated with dimethyl sulfoxide, and 200 nL was then dispensed to a U-bottom 96-well plate using Labcyte Echo. […] The cell suspension was dispensed to a. plate containing a test compound at 100 μL per well and incubated at 37° C. in a 5% carbon dioxide gas incubator. 96 hours later, 80 μL of CellTiter-Glo (Promega) was added to each well and fluorescence was measured.

Compound	IC50
CC[C@H](C)[C@@H]1NC(=O)[C@H](CC(C)C)N(C)C(=O)C[C@@H](C(=O)N2CCCCC2)N(C)C(=O)[C@H](C2CCCCC2)N(C)C(=O)C2(CCCC2)NC(=O)[C@@H]2CCCN2C(=O)[C@H](CCc2ccc(C(F)(F)F)c(Cl)c2)NC(=O)CN(C)C(=O)[C@H]([C@@H](C)O)N(C)C(=O)CN(C)C(=O)CN(C)C1=O [Compound 427] ([NMeL]I[Sar][Sar][NMeT][Sar][hPhe(3-Cl-4-CF3)]P[Ac5c][NMeChg][NMeD]-Piperidide; lactam N-11)	> 0.5 µM
CC[C@H](C)[C@@H]1NC(=O)[C@H](C)N(C)C(=O)C[C@@H](C(=O)N2CCCCC2)N(C)C(=O)[C@H](C2CCCCC2)N(C)C(=O)C2(CCCC2)NC(=O)[C@H](Cc2cccnc2)N(C)C(=O)[C@H](CCc2ccc(C(F)(F)F)c(Cl)c2)NC(=O)CN(C)C(=O)[C@H](CC2CCCCC2)N(C)C(=O)[C@@H]2CCCN2C(=O)CN(C)C1=O [Compound 433] ([NMeA]I[Sar]P[NMeCha][Sar][hPhe(3-Cl-4-CF3)][NMe3Pal][Ac5c][NMeChg][NMeD]-Piperidide; lactam N-11)	> 0.5 µM
CC[C@H](C)[C@@H]1NC(=O)[C@H](CC(C)C)N(C)C(=O)C[C@@H](C(=O)N2CCCCC2)N(C)C(=O)[C@H](CC(C)C)NC(=O)C(C)(C)N(C)C(=O)[C@H](CCc2ccccc2)NC(=O)[C@H](Cc2cccc(I)c2)NC(=O)CN(C)C(=O)[C@H](Cc2ccc(C)cc2)N(C)C(=O)[C@@H]2CCN2C(=O)CN(C)C1=O [Compound 442] ([NMeL]I[Sar][Aze][NMePhe(4-Me)][Sar][Phe(3-I)][hPhe][NMeAib]L[NMeD]-Piperidide; lactam N-11)	> 0.5 µM
CC[C@H](C)[C@@H]1NC(=O)[C@H](CC(C)C)N(C)C(=O)C[C@@H](C(=O)N2CCCCC2)N(C)C(=O)[C@H](C(C)C)N(C)C(=O)[C@H](C)NC(=O)[C@H](CC(=O)N2CCC(F)(F)CC2)N(C)C(=O)[C@H](CCc2ccc(C(F)(F)F)c(Cl)c2)NC(=O)CN(C)C(=O)[C@H](CC2CCCCC2)N(C)C(=O)CN(C)C(=O)CN(C)C1=O [Compound 444] ([NMeL]I[Sar][Sar][NMeCha][Sar][hPhe(3-Cl-4-CF3)][NMeD](N(CH2CH2)2CF2)A[NMeV][NMeD]-Piperidide; lactam N-11)	> 0.5 µM
CC[C@H](C)[C@@H]1NC(=O)[C@H](C)N(C)C(=O)C[C@@H](C(=O)N2CCCCC2)N(C)C(=O)[C@H](C(C)C)N(C)C(=O)C2(CCCC2)NC(=O)[C@@H]2CCCN2C(=O)[C@H](CCc2ccc(C(F)(F)F)c(Cl)c2)NC(=O)[C@H]2CCCN2C(=O)[C@H](CC2CCCCC2)N(C)C(=O)[C@@H]2CCN2C(=O)CN(C)C1=O [Compound 447] ([NMeA]I[Sar][Aze][NMeCha][dP][hPhe(3-Cl-4-CF3)]P[Ac5c][NMeV][NMeD]-Piperidide; lactam N-11)	> 0.5 µM
CC(C)C[C@H]1C(=O)N[C@@H](CC2CCC2)C(=O)N(C)CC(=O)N(C)CC(=O)N(C)[C@@H](CC2CCCCC2)C(=O)N(C)CC(=O)N[C@@H](CCc2ccc(C(F)(F)F)c(Cl)c2)C(=O)N2CCC[C@H]2C(=O)NC2(CCCC2)C(=O)N(C)[C@@H](C(C)C)C(=O)N(C)[C@H](C(=O)N2CCCCC2)CC(=O)N1C [Compound 451] ([NMeL][Cba][Sar][Sar][NMeCha][Sar][hPhe(3-Cl-4-CF3)]P[Ac5c][NMeV][NMeD]-Piperidide; lactam N-11)	> 0.5 µM
CC[C@@H]1NC(=O)[C@H](Cc2cccc(I)c2)NC(=O)CN(C)C(=O)[C@H](Cc2ccc(Cl)cc2)N(C)C(=O)CN(C)C(=O)CN(C)C(=O)[C@H]([C@@H](C)CC)NC(=O)[C@H](CC(C)C)N(C)C(=O)C[C@@H](C(=O)N2CCCCC2)N(C)C(=O)[C@H](CC(C)C)NC(=O)C(C)(C)N(C)C1=O [Compound 457] ([NMeL]I[Sar][Sar][NMePhe(4-Cl)][Sar][Phe(3-I)][Abu][NMeAib]L[NMeD]-Piperidide; lactam N-11)	> 0.5 µM
CC[C@H](C)[C@@H]1NC(=O)[C@H](CC(C)C)N(C)C(=O)C[C@@H](C(=O)N2CCCCC2)N(C)C(=O)[C@H](CC(C)C)NC(=O)C(C)(C)N(C)C(=O)[C@H](Cc2ccccc2OC)NC(=O)[C@H](Cc2cccc(I)c2)NC(=O)CN(C)C(=O)[C@H](Cc2ccc(C)cc2)N(C)C(=O)[C@@H]2CCN2C(=O)CN(C)C1=O [Compound 459] ([NMeL]I[Sar][Aze][NMePhe(4-Me)][Sar][Phe(3-I)][Phe(2-OMe)][NMeAib]L[NMeD]-Piperidide; lactam N-11)	> 0.5 µM
CC[C@H](C)[C@@H]1NC(=O)[C@H](CC(C)C)N(C)C(=O)C[C@@H](C(=O)N2CCCCC2)N(C)C(=O)[C@H](C(C)C)N(C)C(=O)C(C)(C)NC(=O)[C@H](CC(=O)N2CCC(F)(F)CC2)N(C)C(=O)[C@H](CCc2ccc(C(F)(F)F)c(Cl)c2)NC(=O)CN(C)C(=O)[C@H](CC2CCCCC2)N(C)C(=O)CN(C)C(=O)CN(C)C1=O [Compound 463] ([NMeL]I[Sar][Sar][NMeCha][Sar][hPhe(3-Cl-4-CF3)][NMeD](N(CH2CH2)2CF2)[Aib][NMeV][NMeD]-Piperidide; lactam N-11)	> 0.5 µM
CC[C@H](C)[C@@H]1NC(=O)[C@H](CC(C)C)N(C)C(=O)C[C@@H](C(=O)N2CCCCC2)N(C)C(=O)[C@H](C(C)C)N(C)C(=O)C2(CC2)NC(=O)[C@@H]2CCCN2C(=O)[C@H](CCc2ccc(C(F)(F)F)c(Cl)c2)NC(=O)CN(C)C(=O)[C@H](CC2CCCCC2)N(C)C(=O)CN(C)C(=O)CN(C)C1=O [Compound 468] ([NMeL]I[Sar][Sar][NMeCha][Sar][hPhe(3-Cl-4-CF3)]P[Ac3c][NMeV][NMeD]-Piperidide; lactam N-11)	> 0.5 µM
